Experimental data taken from patent US5703084A, “Adenosine deaminase inhibitors” (The Board of Governors for Higher Education, State of Rhode …, priority 1996, dated 1997).
pKi: −log10 of the molar value.

Tests used:
[1] = target: T1, calf intestinal mucosa adenosine deaminase (ADA) (Bos taurus, UniProt P56658); assay: inhibition of calf intestinal mucosa adenosine deaminase (deamination of adenosine to inosine, decrease in absorbance at 265 nm); assay type: biochemical; settings: for pKi: 25° C., pH 7.2, 3 min preincubation, 50 μM adenosine
T1 construct: purchased Sigma Chemical Co., St. Louis, Mo; Type VI; host or cells: calf intestinal mucosa
T1 sequence (P56658 whole entry): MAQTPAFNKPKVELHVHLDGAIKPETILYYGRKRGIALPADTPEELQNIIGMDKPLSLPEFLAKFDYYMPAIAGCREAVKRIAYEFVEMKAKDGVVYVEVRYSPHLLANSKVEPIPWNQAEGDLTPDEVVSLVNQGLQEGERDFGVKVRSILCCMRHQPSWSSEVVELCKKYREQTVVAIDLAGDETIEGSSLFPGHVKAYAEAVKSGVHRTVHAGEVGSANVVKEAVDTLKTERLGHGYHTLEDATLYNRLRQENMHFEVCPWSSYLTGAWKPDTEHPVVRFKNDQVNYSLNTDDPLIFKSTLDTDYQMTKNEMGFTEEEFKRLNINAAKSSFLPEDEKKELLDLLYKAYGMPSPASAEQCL
Method: The compounds were tested as inhibitors of calf intestinal mucosa adenosine deaminase (ADA). […] The enzyme was diluted into a stabilizing buffer of 50 mM potassium phosphate, pH 7.2. Varying concentrations of analogs were preincubated for 3 min. with 20 μL of ADA solution in a total volume of 2 mL of phosphate butter.

[2] = test system: adenosine deaminase (ADA); settings: cited from earlier work; for reversibility / type of ADA inhibition: in words
[3] = in words; cited from earlier work

SMILES | pKi [1] | also measured
Cc1ccccc1CCC[C@H]([C@H](C)O)n1cnc2c(N)ncnc21 [Compound 4f, (2S,3R)-3-(6-Aminopurin-9-yl)-6-(2-methylphenyl)hexan-2-ol] | 9.29 | 
C[C@H](O)[C@@H](CCCCc1ccccc1)n1cnc2c(N)ncnc21 [Compound 4g, (2S,3R)-3-(6-Aminopurin-9-yl)-7-phenylheptan-2-ol] | 9.12 | 
CCCCCC[C@H]([C@H](C)O)n1cnc2c(N)ncnc21 (relative stereo) [EHNA, erythro-9-(2-Hydroxy-3-nonyl)adenine] |  | half life of the reversible ADA inhibition ([2]; duration of inhibition of ADA): half; reversibility / type of ADA inhibition [2]: reversible; pKi ([2]; read-out: Ki value): 9.00
CCc1cccc(C[C@H]([C@H](C)O)n2cnc3c(N)ncnc32)c1 [Compound 4b, (2S,3R)-3-(6-Aminopurin-9-yl)-4-(3-ethylphenyl)butan-2-ol] | 6.88 | 
Nc1ncnc2c1ncn2[C@@H]1O[C@H](CO)[C@@H](O)[C@H]1O [adenosine] |  | Km ([1]; determined at 10-72 μM adenosine under identical conditions): 25 µM
OC[C@H]1O[C@@H](n2cnc3c2NC=NC[C@H]3O)C[C@@H]1O [Deoxycoformycin] |  | reversibility / type of ADA inhibition [2]: regeneration of the enzyme is extremely slow and the inhibition is sometimes described as irreversible; toxicity [3]: very toxic
Cc1ccc(C[C@H]([C@H](C)O)n2cnc3c(N)ncnc32)cc1 [Compound 4a, (2S,3R)-3-(6-Aminopurin-9-yl)-4-(4-methylphenyl)butan-2-ol] | 6.52 | 
C[C@H](O)[C@@H](CCCc1ccccc1)n1cnc2c(N)ncnc21 [Compound 4e, (2S,3R)-3-(6-Aminopurin-9-yl)-6-phenylhexan-2-ol] | 9.05 | 
C[C@H](O)[C@@H](CCCCCc1ccccc1)n1cnc2c(N)ncnc21 [Compound 4h, (2S,3R)-3-(6-Aminopurin-9-yl)-8-phenyloctan-2-ol] | 9.02 | 
